Test results as given in patent US20110046070A1, “GENE EXPRESSION INHIBITOR SELECTIVE FOR MATRIX METALLOPROTEINASE-9 GENE” (priority 2008, published 2011).

Legend:
[1] = system: double-stranded DNA of the region from −77 to −70 containing the AP-1 binding site of the human matrix metalloproteinase-9 promoter; assay: Gel shift assay (EMSA), AP-1 site oligonucleotide; details: 10 μM polyamide, 0.6 μM fluorescently labeled double-stranded DNA, 37° C., 1 hour
Procedure: Oligonucleotides were synthesized and annealed to form 2 kinds of double-stranded oligonucleotides corresponding to the promoter base pairs against HMMP9AP1 and HMMP9NFκβ. One single-stranded oligonucleotide was labeled with FITC and hybridized with another single-stranded oligonucleotide as a complementary sequence to prepare double-stranded DNA. Specifically, nucleotides having the following nucleotide sequences were prepared: HMMP9AP1 (match) sense primer (5′[…]) (SEQ ID NO: 8) corresponding to the region from −77 to −70 containing the AP-1 binding site; this sequence plus 2-base mutation, i.e., HMMP9AP1 oligo DNA (mismatch 1) sense primer (5′[…]) (SEQ ID NO: 9); HMMP9NFκβ (match) sense primer (5′[…]) (SEQ ID NO: 10) containing the region from −605 to −599 containing the NFκβ binding site; this sequence plus 2-base mutation, i.e., HMMP9NFκβ (mismatch 1) sense primer (5′[…]) (SEQ ID NO: 11); and antisense primers respectively complementary to these 4 primers. […] The obtained complexes were electrophoresed on a 20% polyacrylamide gel, and the mobilities of the fluorescently labeled double-stranded oligonucleotides were analyzed with a fluorescent image analyzer (FUJIFILM, LAS-4000, Tokyo, Japan). […]

[2] = system: liver metastasis of human colon cancer cell strain HT29 transplanted in the spleen; assay: Nude mouse models with liver metastasis from human colon cancer; format: in vivo, nude mice; details: HT29 cells cultured 1 hour with 10 μM polyamide, splenic transplantation, 6 weeks
Procedure: 5-week-old male nude mice (BALB/c Nude Mice CBy.Cg-Foxn1nu/J) (Jackson Laboratory) were purchased, maintained in a pathogen-free environment until 6 week olds, and used in the experiment. A human colon cancer cell strain HT29 was monolayer-cultured in a 100-cm^2 cell culture flask and treated with 0.05% trypsin and 0.02% EDTA solutions before reaching confluence. The cells were collected, centrifuged at 800 rpm for 3 minutes, then washed with PBS containing neither Ca^2+ nor Mg^2+, and cultured for 1 hour in a culture solution adjusted to a polyamide concentration of 10 μM or a polyamide-free culture solution. Then, a cell suspension having a concentration of 3×10^6 cells in 100 μl again was prepared using PBS. The thus-prepared 3 groups of the cells containing HMMP9NFκβ polyamide, containing mismatch polyamide and in polyamide-free PBS were separately administered to the nude mice (6 individuals/group). Longitudinal incision was made in the skin on the left side of the abdominal regions of the nude mice under anesthesia. After peritoneotomy to the spleen, 100 μl of the colon cancer cell suspension was transplanted to the splenic subcapsular region using a 29-G injection needle (FIG. 29A). The reliable splenic subcapsular transfer of the cell grafts was confirmed based on change in the color tone of the cell-transplanted site through the splenic capsule and the absence of bleeding or leakage of the suspension. After the transplantation, the mice were raised for 6 weeks and subjected to autopsy. The livers and the spleens were extracted, fixed in a 10% buffered formalin solution, then histologically stained with hematoxylin eosin, and subjected to microscopic observation. […] The liver metastatic foci are circled in the preparations.

[3] = system: binding of NF-κβ protein with the MMP-9 promoter region; assay: Immunoprecipitation/PCR assay with anti-NF-κβ antibodies; format: cell-based, human; details: 1 μM, 4 hours, MDA-MB-231 and HeLa cells
Procedure: Immunoprecipitation/PCR assay with anti-NF-κβ antibodies was conducted using MDA-MB-231 and HeLa cells. The MDA-MB-231 and HeLa cells were separately inoculated to a 100-mm culture dish and cultured for 24 hours in […] of Dulbecco's modified Eagle medium (DMEM) containing 10% fetal bovine serum (Invitrogen) and then with 1 μM match polyamide HMMP9NFκβ or 1 μM mismatch polyamide (shown in FIG. 26) for 4 hours. Protein-DNA complexes were fixed in 1% formaldehyde, reacted with specific NF-κB p65 antibodies and nonspecific rabbit immunoglobulin G antibodies, and collected by precipitation as antibody-protein-DNA complexes using Protein A beads. From the protein-DNA complexes, DNA was separated through reaction with 5 M NaCl and subjected to amplification reaction using PCR primers flanking the NFκβ binding sequence of MMP9. The NFκβ-bound DNA of an MMP9 gene promoter region is identified as a PCR product.
An MMP-9 promoter region from −657 to −484 was amplified using PCR primers (forward: 5′-TGTCCCTTTACTGCCCTGA-3′ (SEQ ID NO: 20) and reverse: 5′-[…]-3′ (SEQ ID NO: 21)) (Schwingshackl A, Duszyk M, Brown N, Moqbel R. HμMan eosinophils release matrix metalloproteinase-9 on stimulation with TNF-α. J Allergy Clin Immunol 104: 983-989, 1999).

SMILES	binding to target double-stranded DNA (mobility versus lanes containing only DS) [1]	area of liver metastatic foci [2]	number of liver metastatic foci [2]	size of liver metastatic foci [2]	NF-κβ p65-NF-κβ binding region complex of the MMP-9 promoter in immunoprecipitation with anti-NF-κβ p65 antibodies [3]
CC(=O)Nc1cn(C)c(C(=O)Nc2cc(C(=O)NCCC(=O)Nc3cn(C)c(C(=O)Nc4cc(C(=O)Nc5cc(C(=O)NCCCC(=O)Nc6cn(C)c(C(=O)Nc7cn(C)c(C(=O)Nc8cc(C(=O)NCCC(=O)Nc9cn(C)c(C(=O)Nc%10cc(C(=O)NCCC(=O)NCCCN(C)C)n(C)c%10)n9)n(C)c8)n7)n6)n(C)c5)n(C)c4)n3)n(C)c2)n1 [HMMP9AP1]	lower mobility				
CC(=O)Nc1cc(C(=O)Nc2cc(C(=O)NCCC(=O)Nc3cc(C(=O)Nc4cc(C(=O)NCCCC(=O)Nc5cn(C)c(C(=O)Nc6cn(C)c(C(=O)NCCC(=O)Nc7cc(C(=O)Nc8cc(C(=O)NCCC(=O)NCCCN(C)C)n(C)c8)n(C)c7)n6)n5)n(C)c4)n(C)c3)n(C)c2)n(C)c1 [HMMP9NFκβ]		small	distinctly small	distinctly small	not detected
